Literature values, collected in article PMC4386841 (Journal of the American Chemical Society, 2015).
Where two headings read alike, the source gives them in different places.

Compound: O=c1c(-c2ccc(O)c(O)c2)coc2cc(O)ccc12 [Orita-13, 3-(3,4-dihydroxyphenyl)-7-hydroxy-4H-chromen-4-one]
- Ki (MIF; dopachrome assay): 0.038 µM

Compound: CN1C(C(=O)Nc2ccccn2)=C(O)c2ccccc2S1(=O)=O [Piroxicam]
- Aqueous solubility, literature value: 5.9 µg/mL
